Test results reported in patent US7186825B2, “Conformationally restricted polyamine analogs as disease therapies” (Cellgate, Inc., priority 1999, dated 2007).
Read-outs that look alike come from different tables or passages of the source.

What was measured:
Type in all cases: cell-based
[1] = test system: human prostate cancer cells PC3; assay: MTT assay, survival/growth of cultured human prostate cancer cells PC3; details: Homo sapiens; for EC50: PC-3, 144 h, figure legends, survival of cultured PC3 cells, MTT, six days after drug treatment, read-out: ED50 (the source's name)
Method: (§1) Human breast cancer cell line MCF7 was grown in Richter's Improved Modified Eagle's Medium supplemented with 10% fetal bovine serum (FBS) and 2.2 g/L sodium bicarbonate. Human brain tumor cell line U251 MG-NCI was grown in Dulbecco's Modified Eagle's Medium supplemented with 10% FBS. Human lung cancer cell line A549 was grown in Ham's F-12K medium (Cellgro, Mediatech, Inc., VA), supplemented with 10% FBS and 2 mM L-glutamine. Human colon cancer cell line HT29 was cultured in McCoy's 5A medium (Gibco, BRL, Gaithersburg, Md.) supplemented with 10% FBS. Human prostate cancer cell lines PC-3, LNCAP and DuPro were grown in RPMI 1640 Medium (Cellgro, Mediatech, Inc., VA) supplemented with 10% FBS. Another human prostate cancer cell line DU145 was grown in Dulbecco's Modified Eagle's Medium (Gibco, BRL, Gaithersburg, Md.) supplemented with 5% FBS. The A549, MCF7, PC3, LNCAP and DuPro cell lines were cultured in 100 units/mL penicillin and 100 μg/mL streptomycin. HT29 and U251MG cell lines were grown in 50 μg/mL gentamycin (Gibco, BRL, Gaithersburg, Md.). DU145 cell line was maintained in 1% antibitic-antimycotic solution (Sigma, St. Louis, Mo.). The cell cultures were maintained at 37° C. in 5% CO2/95% humidified air. DuPro cells were obtained from M. Eileen Dolan, University of Chicago. All other cells are available from the American Type Culture Collection, Rockville, Md.
(§2) A conventional MTT assay was used to evaluate percent cell survival. Exponentially growing monolayer cells were plated in 96-well plates at a density of 500 cells per well and allowed to grow for 24 hours. Serial dilutions of the drugs were added to the wells. Six days after drug treatment, 25 μl of MTT solution (5 mg/ml) was added to each well and incubated for 4 hours at 37° C. Then 100 μl of lysis buffer (20% sodium dodecyl sulfate, 50% DMF, and 0.8% acetic acid, pH 4.7) was added to each well and incubated for an additional 22 hours. A microplate reader (“EMAX”-brand, Molecular Devices, Sunnyvale, Calif.) set at 570 nm was used to determine the optical density of the cultures. Results are expressed as a ratio of the optical density in drug-treated wells to the optical density in wells treated with vehicle only.
(§3) Using the protocols of Example 2, the porphyrin-polyamine conjugates were tested for activity in vitro in various cancer cell lines.

[2] = test system: human colon cancer cells HT29; assay: MTT assay, survival/growth of cultured human colon cancer cells HT29; details: Homo sapiens; for IC50: read-out: concentration needed for 50% growth inhibition (ID50), Table 3, HT-29
Method: (§4) As shown in Table 3 and FIGS. 1–32, several novel conformationally restricted polyamine analogs were tested for anti-proliferative properties against cancer cells.
as §1, §2

[3] = test system: human lung cancer cells A549; assay: MTT assay, survival/growth of cultured human lung cancer cells A549; details: Homo sapiens; for EC50: 144 h, figure legends, survival of cultured A549 cells, MTT, six days after drug treatment, read-out: ED50 (the source's name); for IC50: read-out: concentration needed for 50% growth inhibition (ID50), Table 3, A549
Method: as §4, §1, §2

[4] = test system: human breast cancer cells MCF7; assay: MTT assay, survival/growth of cultured human breast cancer cells MCF7; details: Homo sapiens; for EC50: 144 h, figure legends, survival of cultured MCF7 cells, MTT, six days after drug treatment, read-out: ED50 (the source's name); for IC50: read-out: concentration needed for 50% growth inhibition (ID50), Table 3, MCF7
Method: as §4, §1, §2

[5] = test system: human prostate cancer cells DU145; assay: MTT assay, survival/growth of cultured human prostate cancer cells DU145; details: Homo sapiens; for EC50: DU-145, 144 h, figure legends, survival of cultured DU145 cells, MTT, six days after drug treatment, read-out: ED50 (the source's name); for IC50: DU-145
Method: as §1, §2, §3

[6] = test system: human prostate cancer cells DUPRO; assay: MTT assay, survival/growth of cultured human prostate cancer cells DUPRO; details: Homo sapiens
Method: as §1, §2, §3

[7] = test system: human prostate cancer cells LNCAP; assay: MTT assay, survival/growth of cultured human prostate cancer cells LNCAP; details: Homo sapiens, 144 h, figure legends, survival of cultured LNCAP cells, six days after drug treatment, read-out: ED50 (the source's name)
Method: as §1, §2, §3

[8] = read-out: concentration needed for 50% growth inhibition (ID50), Table 3, PC-3
[9] = read-out: concentration needed for 50% growth inhibition (ID50), Table 3
[10] = 144 h, figure legends, survival of cultured DUPRO cells, MTT, six days after drug treatment, read-out: ED50 (the source's name)
[11] = read-out: concentration needed for 50% growth inhibition (ID50), Table 3, DUPRO

SMILES	EC50 [1] [nM]	IC50 [1, 8] [µM]	IC50 [2] [nM]	EC50 [3] [nM]	IC50 [3] [nM]	EC50 [4] [nM]	IC50 [4] [nM]	EC50 [5] [nM]	IC50 [5, 9] [µM]	EC50 [6, 10] [nM]	IC50 [6, 11] [µM]	IC50 [6, 10] [µM]	EC50 ([2]; HT-29, 144 h, figure legends, survival of cultured HT29 cells, MTT, six days after drug treatment, read-out: ED50 (the source's name)) [nM]	EC50 [7] [nM]	IC50 ([1]; Table 4, PC3, growth by MTT assay, read-out: IC50 (μM) in different cell lines) [µM]	IC50 ([5]; Table 4, DU145, growth by MTT assay, read-out: IC50 (μM) in different cell lines) [µM]	IC50 ([6]; Table 4, DUPRO, growth by MTT assay, read-out: IC50 (μM) in different cell lines) [µM]
CCNCCCCNC/C=C\CNCCCCNCCCCNCC [SL-11122]	> 31200	> 31.2	800	> 31200	> 31200	> 31200	> 31200	80	0.8	560	0.56	–	–	–	–	–	–
CCNCCCCNC/C=C\CNC/C=C\CNCCCCNCC [SL-11123]	> 31200	> 31.2	10400	> 31200	> 31200	> 31200	> 31200	510	0.51	–	> 31.2	> 31.2	–	–	–	–	–
CCNC1CCCC1CNCCCNCC1CCCC1NCC (stereo not drawn) [SL-11124]	> 31200	> 31.2	> 31200	> 31200	> 31200	> 31200	> 31200	> 31200	> 31.2	> 31200	> 31.2	–	> 31200	–	–	–	–
CCNC/C=C\CNC/C=C\CNCCCCNCCCCNCC [SL-11127]	> 31200	> 31.2	2910	–	–	–	–	220	0.22	1300	1.3	–	–	–	–	–	–
CCNC/C=C\CNC/C=C\CNCCCCNC/C=C\CNCC [SL-11129]	1700	1.7	–	–	–	–	–	320	–	–	–	> 31.2	–	–	–	–	–
CCNC/C=C\CNC/C=C\CNC/C=C\CNCCCCNCC [SL-11130]	> 31200	> 31.2	–	–	–	–	–	430	0.43	–	–	> 31.2	–	–	–	–	–
CCNCCCNCCCNCC1CCCC1NCC (stereo not drawn) [SL-11132]	> 31200	–	–	–	–	–	–	15	–	> 31200	–	–	–	–	–	–	–
CCNC/C=C\CNCCCCNC/C=C\CNCCCCNCC [SL-11133]	> 31200	–	–	–	–	–	–	340	–	–	–	31.2	–	–	–	–	–
CCNCCCCNCCCCNCCCCNCCCCNCCO [SL-11141]	> 31200	–	–	–	–	–	–	130	–	710	–	–	–	70	–	–	–
CCNCCCCNCCCCNCCCCNCCCCNC/C=C\CNCCCCNCCCCNCCCCNCCCCNCC [SL-11150]	–	–	–	–	–	–	–	110	–	480	–	–	–	230	–	–	–
CCNCCCCNCCCCNCCCCNCCCC1=C(C)c2cc3[nH]c(cc4nc(cc5[nH]c(cc1n2)c(CCCNCCCCNCCCCNCCCCNCC)c5C)C(CC)=C4C)c(CC)c3C [SL-11202]	–	–	–	–	–	–	–	–	–	–	–	–	–	–	1.15	4.6	1.3
